# Source: patent US20230102554A1 (GB002, INC., priority 2019, published 2023)
# Assays:
# [1] = target: T1, Human PDGFRα, cytoplasmic domain (GST-PDGFRα) (Homo sapiens, UniProt P16234); assay: Human PDGFRα biochemical inhibition assay (off-chip Mobility Shift Assay)
# T1 construct: made in house
# [2] = target: T2, Human PDGFRβ, cytoplasmic domain (GST-PDGFRβ) (Homo sapiens, UniProt P09619); assay: Human PDGFRβ biochemical inhibition assay (off-chip Mobility Shift Assay)
# T2 construct: made in house
# T2 sequence (P09619 with tags, fused parts or gaps): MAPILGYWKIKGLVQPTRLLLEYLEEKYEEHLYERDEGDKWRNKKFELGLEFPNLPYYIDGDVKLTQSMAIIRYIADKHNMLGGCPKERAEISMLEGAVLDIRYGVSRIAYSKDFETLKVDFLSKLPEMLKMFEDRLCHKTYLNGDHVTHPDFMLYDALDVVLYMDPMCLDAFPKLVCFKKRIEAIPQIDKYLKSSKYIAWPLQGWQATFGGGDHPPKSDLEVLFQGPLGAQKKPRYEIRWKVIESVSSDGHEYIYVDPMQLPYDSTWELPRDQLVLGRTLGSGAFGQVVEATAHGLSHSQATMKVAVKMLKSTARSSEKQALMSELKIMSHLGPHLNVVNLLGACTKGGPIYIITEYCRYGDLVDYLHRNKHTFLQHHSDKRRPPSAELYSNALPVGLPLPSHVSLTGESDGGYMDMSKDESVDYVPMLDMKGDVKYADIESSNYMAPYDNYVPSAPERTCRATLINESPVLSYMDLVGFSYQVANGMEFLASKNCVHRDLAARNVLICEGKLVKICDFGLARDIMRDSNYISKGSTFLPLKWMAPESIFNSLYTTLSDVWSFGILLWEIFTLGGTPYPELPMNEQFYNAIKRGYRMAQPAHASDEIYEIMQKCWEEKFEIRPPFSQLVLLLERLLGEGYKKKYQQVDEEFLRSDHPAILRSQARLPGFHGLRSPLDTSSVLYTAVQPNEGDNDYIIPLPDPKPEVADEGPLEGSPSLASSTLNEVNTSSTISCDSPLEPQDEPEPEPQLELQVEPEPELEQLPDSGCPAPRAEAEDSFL
# How it was run: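 GST-tagged cytoplasmic domain (aa 557-1106) from baculovirus was incubated 1 h at room temperature with compound, CSKtide, ATP at Km and Mg²⁺ in HEPES buffer, pH 7.5. Phosphorylated and unphosphorylated peptide were separated by off-chip mobility shift, and the product ratio P/(P+S) gave percent inhibition.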
# T1 sequence (P16234 550-1089 T674I): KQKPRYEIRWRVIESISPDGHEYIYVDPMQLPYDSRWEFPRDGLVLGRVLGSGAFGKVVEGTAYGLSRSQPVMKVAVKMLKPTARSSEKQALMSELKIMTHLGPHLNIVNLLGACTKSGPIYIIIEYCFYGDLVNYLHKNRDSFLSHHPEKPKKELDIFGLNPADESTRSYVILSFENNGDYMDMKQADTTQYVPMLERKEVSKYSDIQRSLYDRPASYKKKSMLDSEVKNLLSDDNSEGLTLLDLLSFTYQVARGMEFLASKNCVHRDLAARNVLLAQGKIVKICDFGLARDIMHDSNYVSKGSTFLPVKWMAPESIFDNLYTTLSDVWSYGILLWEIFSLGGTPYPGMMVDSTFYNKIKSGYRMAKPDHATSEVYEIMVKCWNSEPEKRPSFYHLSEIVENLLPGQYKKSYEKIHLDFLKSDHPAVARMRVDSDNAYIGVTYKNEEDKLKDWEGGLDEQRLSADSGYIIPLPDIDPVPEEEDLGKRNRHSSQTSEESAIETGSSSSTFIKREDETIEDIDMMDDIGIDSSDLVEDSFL
IC50 [1],IC50 [2],SMILES
< 300 nM,< 300 nM,"CCn1cc2ncc(N[C@@H](C)c3cc(NC(=O)c4cc(F)c(CN5CCN(C)CC5)c(Cl)c4)ccc3C)nc2n1 [Compound 518, (S)-3-chloro-N-(3-(1-((2-ethyl-2H-pyrazolo[3,4-b]pyrazin-6-yl)amino)ethyl)-4-methylphenyl)-5-fluoro-4-((4-methylpiperazin-1-yl)methyl)benzamide]"
< 300 nM,300 to 1000 nM,"CCn1cc2ncc(N[C@@H](C)c3cc(NC(=O)Cc4ccc(F)c(CN5CCN(C)CC5)n4)ccc3C)nc2n1 [Compound 726, (S)-N-(3-(1-((2-ethyl-2H-pyrazolo[3,4-b]pyrazin-6-yl)amino)ethyl)-4-methylphenyl)-2-(5-fluoro-6-((4-methylpiperazin-1-yl)methyl)pyridin-2-yl)acetamide]"
< 300 nM,< 300 nM,"CCn1cc2ncc(N[C@@H](C)c3cccc(NC(=O)c4cnc5c(c4)CCCO5)c3)nc2n1 [Compound 56, (S)-N-(3-(1-((2-ethyl-2H-pyrazolo[3,4-b]pyrazin-6-yl)amino)ethyl)phenyl)-3,4-dihydro-2H-pyrano[2,3-b] pyridine-6-carboxamide]"
< 300 nM,< 300 nM,"Cc1n[nH]c2ncc(N[C@@H](C)c3cccc(NC(=O)c4cnn(C(F)F)c4)c3)nc12 [Compound 546, (S)-1-(difluoromethyl)-N-(3-(1-((3-methyl-1H-pyrazolo[3,4-b]pyrazin-5-yl)amino)ethyl)phenyl)-1H-pyrazole-4-carboxamide]"
< 300 nM,≥ 1000 nM,"CCn1cc2ncc(N[C@@H](C)c3cccc(NC(=O)Cc4ccc(F)cn4)c3)nc2n1 [Compound 647, (S)-N-(3-(1-((2-ethyl-2H-pyrazolo[3,4-b]pyrazin-6-yl)amino)ethyl)phenyl)-2-(5-fluoropyridin-2-yl)acetamide]"
300 to 1000 nM,≥ 1000 nM,"CCn1cc2ncc(N[C@@H](C)c3cccc(NC(=O)c4cnc5cnn(C)c5c4)c3)nc2n1 [Compound 62, (S)-N-(3-(1-((2-ethyl-2H-pyrazolo[3,4-b]pyrazin-6-yl)amino)ethyl)phenyl)-1-methyl-1H-pyrazolo[4,3-b]pyridine-6-carboxamide]"
< 300 nM,≥ 1000 nM,"CCn1cc2ncc(N[C@@H](C)c3cccc(NC(=O)Nc4cnn(CC5CC5)c4)c3)nc2n1 [Compound 741, (S)-1-(1-(cyclopropylmethyl)-1H-pyrazol-4-yl)-3-(3-(1-((2-ethyl-2H-pyrazolo[3,4-b]pyrazin-6-yl)amino)ethyl)phenyl)urea]"
< 300 nM,< 300 nM,"C[C@H](Nc1cnc2cnn(C)c2n1)c1cccc(NC(=O)c2ccc(C3CC3)nc2)c1 [Compound 116, (S)-6-cyclopropyl-N-(3-(1-((1-methyl-1H-pyrazolo[3,4-b]pyrazin-6-yl)amino)ethyl)phenyl)nicotinamide]"
< 300 nM,300 to 1000 nM,"CCn1cc2ncc(N[C@@H](C)c3cccc(NC(=O)c4ccc(CN5CC[C@@H](O)C5)c(C)c4)c3)nc2n1 [Compound 482, N-(3-((S)-1-((2-ethyl-2H-pyrazolo[3,4-b]pyrazin-6-yl)annno)ethyl)phenyl)-4-(((R)-3-hydroxypyrrolidin-1-yl)methyl)-3-methylbenzamide]"
< 300 nM,< 300 nM,"CC(C)c1ccc(C(=O)Nc2cccc([C@H](C)Nc3cnc4cnn(C)c4n3)c2)cn1 [Compound 204, (S)-6-isopropyl-N-(3-(1-((1-methyl-1H-pyrazolo[3,4-b]pyrazin-6-yl)amino)ethyl)phenyl)nicotinamide]"
< 300 nM,< 300 nM,"CCn1cc2ncc(N[C@@H](C)c3cc(NC(=O)c4ccc(CN5CCOCC5)c(C)c4)ccc3F)nc2n1 [Compound 446, (S)-N-(3-(1-((2-ethyl-2H-pyrazolo[3,4-b]pyrazin-6-yl)amino)ethyl)-4-fluorophenyl)-3-methyl-4-(morpholinomethyl) benzamide]"
< 300 nM,< 300 nM,"CCn1cc2ncc(N[C@@H](C)c3cccc(NC(=O)c4ccc(CN5CCN(C)CC5)c(Cl)c4)c3)nc2n1 [Compound 417, (S)-3-chloro-N-(3-(1-((2-ethyl-2H-pyrazolo[3,4-b]pyrazin-6-yl)amino)ethyl)phenyl)-4-((4-methylpiperazin-1-yl)methyl) benzamide]"
300 to 1000 nM,≥ 1000 nM,"COc1ccc(NC(=O)c2cncc(C)c2)cc1CNc1cnc2ccccc2n1 [Compound 43, N-(4-methoxy-3-((quinoxalin-2-ylamino)methyl)phenyl)-5-methylnicotinamide]"
300 to 1000 nM,≥ 1000 nM,"CC[C@H](Nc1cnc2cn(CC)nc2n1)c1cccc(NC(=O)c2cncc(C)c2)c1 [Compound 408, (S)-N-(3-(1-((2-ethyl-2H-pyrazolo[3,4-b]pyrazin-6-yl)amino)propyl)phenyl)-5-methylnicotinamide]"
< 300 nM,< 300 nM,"CCn1cc2ncc(N[C@@H](C)c3cc(NC(=O)c4ccc(CN5CCCC5)c(C)c4)ccc3F)nc2n1 [Compound 470, (S)-N-(3-(1-((2-ethyl-2H-pyrazolo[3,4-b]pyrazin-6-yl)amino)ethyl)-4-fluorophenyl)-3-methyl-4-(pyrrolidin-1-ylmethyl)benzamide]"
< 300 nM,< 300 nM,"CCn1cc2ncc(N[C@@H](C)c3cccc(NC(=O)c4cnc(C(F)F)s4)c3)nc2n1 [Compound 319, (S)-2-(difluoromethyl)-N-(3-(1-((2-ethyl-2H-pyrazolo[3,4-b]pyrazin-6-yl)amino)ethyl)phenyl)thiazole-5-carboxamide]"
≥ 1000 nM,≥ 1000 nM,"CCn1cc2ncc(N[C@@H](C)c3cccc(NC(=O)c4ccc(C)o4)c3)nc2n1 [Compound 369, (S)-N-(3-(1-((2-ethyl-2H-pyrazolo[3,4-b]pyrazin-6-yl)amino)ethyl)phenyl)-5-methylfuran-2-carboxamide]"
< 300 nM,< 300 nM,"C[C@H](Nc1cnc2cnn(C)c2n1)c1cccc(NC(=O)c2ccc(C3CCC3)nc2)c1 [Compound 123, (S)-6-cyclobutyl-N-(3-(1-((1-methyl-1H-pyrazolo[3,4-b]pyrazin-6-yl)amino)ethyl)phenyl)nicotinamide]"
< 300 nM,< 300 nM,Cc1cncc(C(=O)Nc2cccc([C@H](C)Nc3cnc4ccsc4n3)c2)c1 [Compound 607]
< 300 nM,< 300 nM,"Cc1cc(C(=O)Nc2cccc([C@H](C)Nc3cnc4cnn(C)c4n3)c2)ccc1O [Compound 240, (S)-4-hydroxy-3-methyl-N-(3-(1-((1-methylH-pyrazolo[3,4-b]pyrazin-6-yl)amino)ethyl)phenyl)benzamide]"
300 to 1000 nM,300 to 1000 nM,"CCn1cc2ncc(N[C@@H](C)c3cccc(NC(=O)c4ccc(C(F)(F)F)nc4)c3)nc2n1 [Compound 284, (S)-N-(3-(1-((2-ethyl-2H-pyrazolo[3,4-b]pyrazin-6-yl)amino)ethyl)phenyl)-6-(trifluoromethyl)nicotinamide]"
< 300 nM,< 300 nM,"CCn1cc2ncc(N[C@@H](C)c3cc(NC(=O)c4ccc(OC5CCN(C)CC5)c(C)c4)ccc3F)nc2n1 [Compound 447, (S)-N-(3-(1-((2-ethyl-2H-pyrazolo[3,4-b]pyrazin-6-yl)amino)ethyl)-4-fluorophenyl)-3-methyl-4-((1-methylpiperidin-4-yl)oxy)benzamide]"
< 300 nM,< 300 nM,"CCn1cc2ncc(N[C@@H](C)c3cccc(NC(=O)c4ccc(C(F)(F)F)c(OC)c4)c3)nc2n1 [Compound 440, (S)-N-(3-(1-((2-ethyl-2H-pyrazolo[3,4-b]pyrazin-6-yl)amino)ethyl)phenyl)-3-methoxy-4-(trifluoromethyl) benzamide]"
< 300 nM,< 300 nM,"CCn1cc2ncc(N[C@@H](C)c3cccc(NC(=O)c4ccc(CN5CCOCC5)c(C(F)(F)F)c4)c3)nc2n1 [Compound 424, (S)-N-(3-(1-((2-ethyl-2H-pyrazolo[3,4-b]pyrazin-6-yl)amino)ethyl)phenyl)-4-(morpholinomethyl)-3-(trifluoromethyl)benzamide]"
< 300 nM,< 300 nM,"Cc1cncc(C(=O)Nc2cccc([C@H](C)Nc3cnc4[nH]cc(-c5ccncc5)c4n3)c2)c1 [Compound 592, (S)-5-methyl-N-(3-(1-((7-(pyridin-4-yl)-5H-pyrrolo[2,3-b]pyrazin-2-yl)amino)ethyl)phenyl)nicotinamide]"
< 300 nM,300 to 1000 nM,"CCn1cc2ncc(N[C@@H](C)c3cccc(NC(=O)Cc4cc(F)ccc4F)c3)nc2n1 [Compound 640, (S)-2-(2,5-difluorophenyl)-N-(3-(1-((2-ethyl-2H-pyrazolo[3,4-b]pyrazin-6-yl)amino)ethyl)phenyl)acetamide]"
< 300 nM,< 300 nM,"CCn1cc2ncc(N[C@@H](C)c3cccc(NC(=O)c4ccc(CN5CCN(C)CC5)cc4)c3)nc2n1 [Compound 376, (S)-N-(3-(1-((2-ethyl-2H-pyrazolo[3,4-b]pyrazin-6-yl)amino)ethyl)phenyl)-4-((4-methylpiperazin-1-yl)methyl) benzamide]"
≥ 1000 nM,≥ 1000 nM,"CCn1cc2ncc(N[C@@H](C)c3cc(NC(=O)Cc4ccc(C(C)(C)O)cn4)ccc3F)nc2n1 [Compound 703, (S)-N-(3-(1-((2-ethyl-2H-pyrazolo[3,4-b]pyrazin-6-yl)amino)ethyl)-4-fluorophenyl)-2-(5-(2-hydroxypropan-2-yl)pyridin-2-yl)acetamide]"
< 300 nM,300 to 1000 nM,"COCCn1ccc2ncc(N[C@@H](C)c3cccc(NC(=O)c4cncc(C)c4)c3)nc21 [Compound 84, (S)-N-(3-(1-((5-(2-methoxyethyl)-5H-pyrrolo [2,3-b]pyrazin-3-yl)amino)ethyl)phenyl)-5-methylnicotinamide]"
< 300 nM,< 300 nM,"COc1cncc(C(=O)Nc2cccc([C@H](C)Nc3cnc4cnn(C)c4n3)c2)c1 [Compound 104, (S)-5-methoxy-N-(3-(1-((1-methyl-1H-pyrazolo[3,4-b]pyrazin-6-yl)amino)ethyl)phenyl)nicotinamide]"
